Test results published in publication PMC6835763, “Influence of Short Cationic Lipopeptides with Fatty Acids of Different Chain Lengths on Bacterial Biofilms Formed on Polystyrene and Hydrogel Surfaces” (Pharmaceutics, 2019).
Values after ≈ are worked out from the molar mass of the structure shown. Values joined by “and” are separate entries in the source; they are usually repeats but may differ in a detail not shown here. Identical values can stand only once. Where a SMILES comes first, the peptide text is derived from it. The star is where a group is joined. Palmitoyl = CCCCCCCCCCCCCCCC(=O)*

How the values were obtained:
Assay type in all cases: cell-based
[1] = tested on: Escherichia coli ATCC 25922; assay: MBFIC assay (biofilm formation inhibition, resazurin); details: ca. 5 × 10^8 CFU/mL in MHB II, 37 °C, 18 h, visual, triplicate; for MBFIC E. coli, CL: contact lenses (CL, Etafilcon A hydrogel) in 24-well plates; for MBFIC E. coli, PS: polystyrene plates (PS), 96-well
Description: (§1) To determine the inhibitory effect of antimicrobials on the formation of biofilm on hydrophobic surfaces, the bacterial suspensions of strains (initial inoculum of ca. 5 × 10^8 CFU/mL in MHB II medium supplemented with antimicrobials) were cultured on 96-well PS at 37 °C for 18 h under aerobic conditions. After incubation, the suspensions were aspirated, and the wells were rinsed three times with sterile phosphate buffer PBS (AppliChem, Darmstadt, Germany) in order to remove the planktonic cells. Resazurin (final concentration per sample = 0.005%) was applied as a cell viability reagent for reading the results. In contact with the living cells, the dye is metabolized by bacterial dehydrogenases, resulting in a reduction of blue resazurin to pink resorufin. All assays were performed in triplicate and included the growth controls (positive controls: bacterial suspensions without antimicrobials) and the sterility controls (negative controls: a sterile MBH medium). After 1h of incubation, a visual evaluation of results was made. […] In a preliminary study, it was established that the application of lipopeptides at a concentration found active from visual evaluation caused the reduction of bacterial metabolism to approximately 10% (or less) of the positive control once the results were evaluated with a spectrophotometer. After 1 h of incubation with the dye, absorbance was measured at 570 and 600 nm using a microplate reader (Thermo Fisher Scientific, Waltham, MA, USA). The metabolic activity of bacteria in the samples was measured according to the formula presented in the previous paper.
(§2) The MBFIC assay with CL was applied in order to access the influence of lipopeptides on the biofilm formation on hydrogel surfaces. The entire sterile CL (1-Day Acuvue Moist, containing Etafilcon A., purchased from Johnson & Johnson (Vision Care, Jacksonsville, FL, USA), were placed in 24-well PS (Orange Scientific, Braine-l’ Alleud, Belgium) and the MBFICs were determined according to the above protocol.

[2] = tested on: Staphylococcus epidermidis ATCC 14990; assay: as above; details: ca. 5 × 10^8 CFU/mL in MHB II, 37 °C, 18 h, resazurin, visual, triplicate; for MBFIC S. epidermidis, CL: contact lenses (CL, Etafilcon A hydrogel) in 24-well plates; for MBFIC S. epidermidis, PS: polystyrene plates (PS), 96-well
Description: as §1, §2

[3] = tested on: Enterococcus faecalis ATCC 29212; assay: as above; details: ca. 5 × 10^8 CFU/mL in MHB II, 37 °C, 18 h, visual, triplicate; for MBFIC E. faecalis, CL: contact lenses (CL, Etafilcon A hydrogel) in 24-well plates; for MBFIC E. faecalis, PS: polystyrene plates (PS), 96-well
Description: as §1, §2

[4] = tested on: Staphylococcus aureus ATCC 25923; assay: as above; details: ca. 5 × 10^8 CFU/mL in MHB II, 37 °C, 18 h, resazurin, visual, triplicate; for MBFIC S. aureus, CL: contact lenses (CL, Etafilcon A hydrogel) in 24-well plates; for MBFIC S. aureus, PS: polystyrene plates (PS), 96-well
Description: as §1, §2

[5] = tested on: Pseudomonas aeruginosa ATCC 9027; assay: as above; details: ca. 5 × 10^8 CFU/mL in MHB II, 37 °C, 18 h, visual, triplicate; for MBFIC P. aeruginosa, CL: contact lenses (CL, Etafilcon A hydrogel) in 24-well plates; for MBFIC P. aeruginosa, PS: polystyrene plates (PS), 96-well
Description: as §1, §2

[6] = tested on: Proteus mirabilis PCM 543; assay: as above; details: ca. 5 × 10^8 CFU/mL in MHB II, 37 °C, 18 h, visual, triplicate; for MBFIC P. mirabilis, CL: contact lenses (CL, Etafilcon A hydrogel) in 24-well plates; for MBFIC P. mirabilis, PS: polystyrene plates (PS), 96-well
Description: as §1, §2

[7] = tested on: Escherichia coli ATCC 25922; details: ATCC 25922, 18 h
Description: (§3) The reference strains of gram-positive and gram-negative bacteria (Table 2) were obtained from the Polish Collection of Microorganisms (Polish Academy of Science, Wroclaw, Poland). The microorganisms were cultured in Muller Hinton Broth II (MHB II, Biocorp, Warsaw, Poland), overnight, at 37 °C. The MICs of synthetic lipopeptides and conventional antimicrobials were determined using the broth microdilution method according to the Clinical and Laboratory Standard Institute (CLSI) guidelines on reference strains. […] The PS were incubated under aerobic conditions at 37 °C for 18 h. The MIC (μg/mL) was assumed as the lowest concentration of the compound that inhibited the growth of the microorganisms. All experiments were performed in triplicate and included the growth and sterility controls.

[8] = tested on: Staphylococcus epidermidis ATCC 14990; details: ATCC 14990, 18 h
Description: as §3

[9] = tested on: Enterococcus faecalis ATCC 29212; details: ATCC 29212, 18 h
Description: as §3

[10] = tested on: Staphylococcus aureus ATCC 25923; details: ATCC 25923, 18 h
Description: as §3

[11] = tested on: Pseudomonas aeruginosa ATCC 9027; details: ATCC 9027, 18 h
Description: as §3

[12] = tested on: Proteus mirabilis PCM 543; details: PCM 543, 18 h
Description: as §3

[13] = tested on: Escherichia coli ATCC 25922; details: ATCC 25922, 24 h
Description: (§4) The biofilms of bacteria associated with the biofilm-related infections were cultured on 96-well flat bottom PS and on CL placed in 24-well plates. The bacteria at initial inoculums of 5 × 10^8 CFU/mL in MHB II were added to the plates and incubated at 37 °C under aerobic conditions. After 24 h of incubation, all cultures were rinsed three times with PBS and fresh medium was added. Subsequently, the obtained biofilm cultures were exposed to solutions of antimicrobials applied at graded concentrations ranging from 1 to 512 μg/mL for 24 h at 37 °C. The anti-biofilm activity of antimicrobials was visualized by resazurin (final concentration per sample = 0.005%) in the same way as in the MBFIC assay. All experiments were performed in triplicate and included growth controls (positive control: bacterial suspension without antimicrobials) and sterility controls (negative controls: sterile MBH II medium).

[14] = tested on: Staphylococcus epidermidis ATCC 14990; details: ATCC 14990, 24 h
Description: as §4

[15] = tested on: Enterococcus faecalis ATCC 29212; details: ATCC 29212, 24 h
Description: as §4

[16] = tested on: Staphylococcus aureus ATCC 25923; details: ATCC 25923, 24 h
Description: as §4

[17] = tested on: Pseudomonas aeruginosa ATCC 9027; details: ATCC 9027, 24 h
Description: as §4

[18] = tested on: Proteus mirabilis PCM 543; details: PCM 543, 24 h
Description: as §4

Structure (SMILES)	MBFIC E. coli, CL [1]	MBFIC E. coli, PS [1]	MBFIC S. epidermidis, CL [2] [µg/mL]	MBFIC S. epidermidis, PS [2] [µg/mL]	MBFIC E. faecalis, CL [3]	MBFIC E. faecalis, PS [3]	MBFIC S. aureus, CL [4]	MBFIC S. aureus, PS [4]	MBFIC P. aeruginosa, CL [5]	MBFIC P. aeruginosa, PS [5]	MBFIC P. mirabilis, CL [6]	MBFIC P. mirabilis, PS [6]	MIC E. coli [7] [µg/mL]	MIC S. epidermidis [8] [µg/mL]	MIC E. faecalis [9] [µg/mL]	MIC S. aureus [10] [µg/mL]	MIC P. aeruginosa [11] [µg/mL]	MIC P. mirabilis [12] [µg/mL]	MBEC E. coli, CL [13] [µg/mL]	MBEC S. epidermidis, CL [14] [µg/mL]	other results
CCCCCCCCCCCCCCCC(=O)N[C@@H](CCCCN)C(=O)NCC(=O)N[C@@H](CCCCN)C(N)=O [Lipopeptide 5, C16-KGK-NH2] (Palmitoyl-Lys-Gly-Lys-NH2)	128 µg/mL	64 µg/mL	64	32	64/64 μg/mL	64/64 μg/mL	32/32 μg/mL	32/32 μg/mL	256 µg/mL	512 µg/mL	>512/512 μg/mL	>512/512 μg/mL	16 (≈ 28.1 µM)	32 (≈ 56.3 µM)	32 (≈ 56.3 µM)	64 (≈ 113 µM)	256 (≈ 450 µM)	512 (≈ 900 µM)	64	128	concentrations eliminating the EC biofilm (MBEC range) [13]: 64 to 128 µg/mL; MBEC E. faecalis, CL [15]: 32 µg/mL; MBEC S. aureus, CL [16]: 512 µg/mL; MBEC P. aeruginosa, CL [17]: 256 µg/mL; MBEC P. mirabilis, CL [18]: >512/>512 μg/mL
CCCCCCCCCCCCCCCC(=O)N[C@@H](CCCCN)C(=O)N[C@@H](CCCCN)C(=O)N[C@@H](CCCCN)C(N)=O [Lipopeptide 7, C16-KKK-NH2]	32 µg/mL	64 µg/mL	32	8	64/64 μg/mL	64/64 μg/mL	32/32 μg/mL	32/32 μg/mL	512/512 μg/mL	512/512 μg/mL	256 µg/mL	512 µg/mL	32 (≈ 50 µM)	16 (≈ 25 µM)	16 (≈ 25 µM)	64 (≈ 100 µM)	64 (≈ 100 µM)	256 (≈ 400 µM)	128	64	concentrations eliminating the EC biofilm (MBEC range) [13]: 64 to 128 µg/mL; MBEC E. faecalis, CL [15]: 16 µg/mL; MBEC S. aureus, CL [16]: 256 µg/mL; MBEC P. aeruginosa, CL [17]: 512/>512 μg/mL; MBEC P. mirabilis, CL [18]: 512/>512 μg/mL
CCCCCCCCCCCCCCCC(=O)N[C@@H](CCCCN)C(=O)N[C@@H](CCCNC(=N)N)C(N)=O [Lipopeptide 8, C16-KR-NH2] (Palmitoyl-Lys-Arg-NH2)	64 μg/mL and 64/64 μg/mL	64 μg/mL and 64/64 μg/mL	32	16	64/64 μg/mL	64/64 μg/mL	16 µg/mL	8 µg/mL	128 µg/mL	512 µg/mL	512/512 μg/mL	512/512 μg/mL	64 (≈ 119 µM)	8 (≈ 14.8 µM)	64 (≈ 119 µM)	32 (≈ 59.3 µM)	128 (≈ 237 µM)	512 (≈ 948 µM)	128	32	MBEC E. faecalis, CL [15]: 64/64 μg/mL; MBEC S. aureus, CL [16]: 128 µg/mL; MBEC P. aeruginosa, CL [17]: 32 µg/mL; MBEC P. mirabilis, CL [18]: > 512 µg/mL
